Patent publication US20090017003A1, “THIOSULFONATE ANTI-INFLAMMATORY AGENTS” (SULFIDRIS S.R.L., priority 2006, published 2009)

Tests used:
[1] = assay type: in vivo; settings: male rats, once daily by gavage for three days, diclofenac 10 mg/kg, compound of example 5 14 mg/kg
Protocol: Thirty male rats (150-200 g) were divided into three groups of 10 animals/group and treated with vehicle, diclofenac (10 mg/kg) and the compound of example 5 (14 mg/kg) for three days once daily by gavage. The vehicle consisted in 1 mL of 0.5% carboxymethylcellulose (CMC). At the fifth day, survival animals were sacrificed, by an overdose of ether, and autopsied to detect any pathological changes, particularly in the gastrointestinal tract. Prostaglandin E2 was evaluated in the liver homogenate by standard enzyme immunoassay procedure as described by Warner T D et al. (J.P.E.T. 2004, 310, 642-7).

[2] = tested on: gp91^phox; assay: gp91phox expression by cultured pulmonary endothelial cells; assay type: cell-based, porcine; settings: 16 hr incubation of pig pulmonary artery cells with TNFα
Text: (§1) Effects of the compound prepared in example 4 on superoxide formation, gp91^phox expression by porcine cultured pulmonary endothelial cells and intact cavernosal tissue were studied according to Muzzaffar S. et al. (Br. J. Pharmacol. 2005 September; 146(1):109-17).

[3] = tested on: superoxide formation; assay: Superoxide formation by cultured pulmonary endothelial cells; assay type: cell-based, porcine
Text: as §1

[4] = tested on: PC-3; assay: Growth and adhesion to endothelial cells of PC-3 prostate tumour cells in vitro; assay type: cell-based
Protocol: (§2) The compound described in example 6 has been tested in vitro on 2 prostate tumour cells (DU-145 and PC-3). […] The activity reported in the literature for the parent compound (valproic acid) on the same tumour cells is achieved at much higher concentrations (1 mM). (Engl. T et al. Life Sciences, 2005).

[5] = tested on: DU-145; assay: Growth and adhesion to endothelial cells of DU-145 prostate tumour cells in vitro; assay type: cell-based
Protocol: as §2

[6] = tested on: DU-145; settings: DU-145 prostate tumour cells; Engl T. et al., Life Sciences 2005; cited from earlier work
[7] = tested on: PC-3; settings: PC-3 prostate tumour cells; Engl T. et al., Life Sciences 2005; cited from earlier work

SMILES: O=C(O)Cc1ccccc1Nc1c(Cl)cccc1Cl [Diclofenac, diclofenac, reference compound]
- % deaths ([1]; 10 animals/group): 40%

SMILES: CCCc1nn(C)c2c(=O)[nH]c(-c3cc(S(=O)(=O)N4CCN(CC(=O)OCCSS(C)(=O)=O)CC4)ccc3OCC)nc12 [Example 4, {4-[4-ethoxy-3-(1-methyl-7-oxo-3-propyl-6,7-dihydro-1H-pyrazolo[4,3-d]pyrimidin-5-yl)-benzenesulfonyl]-piperazin-1-yl}-acetic acid 2-methanesulfonylsulfanyl-ethyl ester]
- inhibition of gp91phox expression [2]: inhibited
- inhibition of superoxide formation ([3]; 16 hr incubation of pig pulmonary artery cells with TNFα): potent inhibitor
- inhibition of superoxide formation ([3]; 16 hr incubation of pig pulmonary artery cells with thromboxane A2 analogue U46619): potent inhibitor
- concentration reducing superoxide formation compared with sildenafil citrate ([3]; response to inflammatory mediators): lower concentrations than sildenafil citrate

SMILES: CS(=O)(=O)SCCOC(=O)Cc1cccc(Nc2c(Cl)cccc2Cl)c1 [Example 5, [3-(2,6-dichloro-phenylamino)-phenyl]-acetic acid 2-methanesulfonylsulfanyl-ethyl ester]
- % gastrointestinal ulcer ([1]; autopsy at fifth day): 10%

SMILES: CCCC(CCC)C(=O)OCCSS(C)(=O)=O [Example 6, 2-propyl-pentanoic acid 2-methanesulfonylsulfanyl-ethyl ester]
- concentration range inhibiting adhesion to endothelial cells [4]: 5 to 30 µM
- concentration range inhibiting growth [4]: 5 to 30 µM
- concentration range inhibiting adhesion to endothelial cells [5]: 5 to 30 µM
- concentration range inhibiting growth [5]: 5 to 30 µM

SMILES: CCCC(CCC)C(=O)O [valproic acid]
- concentration at which activity is achieved (literature) [6]: 1 mM
- concentration at which activity is achieved (literature) [7]: 1 mM
